Among the data in patent publication US9067905B2, “Sulphone compounds and methods of making and using same” (Zafgen, Inc., priority 2009, dated 2015) are IC50 values, retold here.

pIC50: −log10 of the molar value. Counter-ions that a name gives are not always drawn.

This test has as its target T1, recombinant human MetAP2 (Homo sapiens, UniProt P50579).
T1 construct: Flag; made in house; host or cells: Sf9 insect cells
In words: Inhibition of recombinant human MetAP2 activity (Amplex red fluorescence assay). The test is classed as biochemical. The conditions noted are these: manganese Flag-MetAP2, 0.75 mM Methionine-Alanine-Serine substrate, 30 minutes at 25° C., pH 7.5, 1% DMSO. The protocol: Compounds are tested for their capacity to inhibit recombinant human MetAP2 activity using the following assay.
Human recombinant Flag-MetAP2 expressed in Sf9 cells followed by affinity purification and EDTA treatment to remove endogenous active site cation is dialysed against MnCl2 to produce the manganese enzyme used in the assay. The assay is carried out for 30 minutes at 25° C. in 50 mM HEPES buffer containing 100 mM NaCl, pH 7.5 the presence of 0.75 mM Methionine-Alanine-Serine (MAS) substrate and 50 μg/ml amino acid oxidase using a dilution of purified MetAP2 giving approximately 50,000 RFU control activity. Cleavage of the substrate by MetAP2 and oxidation of free methionine by amino acid oxidase is detected and quantified using fluorescence generated by Amplex red (10-acetyl-3,7-dihydroxyphenoxazine) in combination with horseradish peroxidase which detects H2O2 released during the oxidation step. The fluorescent signal is detected using a multiwell fluorimeter. Compounds are diluted in DMSO prior to addition to assay buffer, the final DMSO concentration in the assay being 1%.
The IC50 is defined as the concentration at which a given compound achieves 50% inhibition of control. IC50 values are calculated using the XLfit software package (version 2.0.5).

T1 sequence (P50579 whole entry): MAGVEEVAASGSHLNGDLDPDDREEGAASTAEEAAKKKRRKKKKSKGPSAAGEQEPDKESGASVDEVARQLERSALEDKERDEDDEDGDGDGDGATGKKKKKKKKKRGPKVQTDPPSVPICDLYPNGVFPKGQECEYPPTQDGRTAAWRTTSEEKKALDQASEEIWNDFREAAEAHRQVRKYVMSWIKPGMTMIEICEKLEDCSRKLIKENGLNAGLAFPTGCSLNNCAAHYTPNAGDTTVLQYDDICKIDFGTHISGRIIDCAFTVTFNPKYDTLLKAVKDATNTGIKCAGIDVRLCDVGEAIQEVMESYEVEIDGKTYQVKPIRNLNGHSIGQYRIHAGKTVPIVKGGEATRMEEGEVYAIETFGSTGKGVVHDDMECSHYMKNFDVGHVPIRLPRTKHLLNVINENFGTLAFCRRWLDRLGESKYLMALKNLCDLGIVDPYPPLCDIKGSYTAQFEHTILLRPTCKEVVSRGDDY

As to `COc1c(-c2ccoc2)ccc(CS(=O)(=O)c2cccc(Cl)c2)c1C(=O)O` [6-(3-Chlorobenzenesulphonylmethyl)-3-(furan-3-yl)-2-methoxybenzoic acid], the pIC50 was over 6.70.

For the molecule `NCCOc1c(-c2ccoc2)ccc(CS(=O)(=O)c2cccc(Cl)c2)c1C(=O)O` [2-(2-Aminoethoxy)-6-(3-chlorobenzenesulphonylmethyl)-3-(furan-3-yl)benzoic acid hydrochloride], the pIC50 was over 6.70.

Turning to `CN=S(=O)(Cc1ccc(-c2ccoc2)c(OC)c1C(=O)O)c1ccccc1` (centres unmarked) [3-(Furan-3-yl)-2-methoxy-6-[(N-methyl-S-phenylsulphonimidoyl)methyl]benzoic acid], the pIC50 was 5.70 to 6.70.

Regarding `NCCCOc1c(-c2ccoc2)ccc(CS(=O)(=O)c2ccccc2)c1C(=O)O` [2-(3-Aminopropoxy)-6-(benzenesulphonylmethyl)-3-(furan-3-yl)benzoic acid hydrochloride], the negative-log IC50 (pIC50) was 5.70 to 6.70.

`COc1c(-c2ccoc2)ccc(CS(=O)(=O)c2ccc(F)cc2)c1C(=O)O` [6-(4-Fluorobenzenesulphonylmethyl)-3-(furan-3-yl)-2-methoxybenzoic acid]: the pIC50 is over 6.70.

Consider `NCCOc1c(-c2ccoc2)ccc(CS(=O)(=O)c2ccccc2)c1C(=O)O` [2-(2-Aminoethoxy)-6-(benzenesulphonylmethyl)-3-(furan-3-yl)benzoic acid hydrochloride], for which the pIC50 was over 6.70.

`COc1c(C)ccc(CS(=O)(=O)c2ccccc2)c1C(=O)O` [6-(Benzenesulphonylmethyl)-2-methoxy-3-methyl-benzoic acid]: the pIC50 is 5.70 to 6.70.

For `NCCOc1c(-c2ccoc2)ccc(CS(=O)(=O)c2ccc(F)cc2)c1C(=O)O` [2-(2-Aminoethoxy)-6-(4-fluorobenzenesulphonylmethyl)-3-(furan-3-yl)benzoic acid hydrochloride], the negative-log IC50 (pIC50) is over 6.70.

As for `Cc1occc1-c1ccc(CS(=O)(=O)c2ccccc2)c(C(=O)O)c1` [2-(Benzenesulphonylmethyl)-5-(2-methylfuran-3-yl)benzoic acid], the negative-log IC50 (pIC50) is 5.70 to 6.70.

In the case of `COc1c(-c2ccns2)ccc(CS(=O)(=O)c2ccccc2)c1C(=O)O` [6-(Benzenesulphonylmethyl-3-(isothiazol-5-yl)-2-methoxy-benzoic acid], the negative-log IC50 (pIC50) is over 6.70.

Take `CCN(CC)CCOc1ccccc1S(=O)(=O)Cc1ccc(-c2ccoc2)c(OC)c1C(=O)O` [6-[2-(2-Diethylaminoethoxy)benzenesulphonylmethyl]-3-(furan-3-yl)-2-methoxybenzoic acid]: the pIC50 was under 5.70.

As to `COc1c(-c2ccoc2)ccc(CS(=O)(=O)c2ccccc2O)c1C(=O)O` [3-(Furan-3-yl)-6-(2-hydroxybenzenesulphonylmethyl)-2-methoxybenzoic acid], the negative-log IC50 (pIC50) was over 6.70.

As for `COc1cccc2ccc(CS(=O)(=O)c3ccccc3)c(C(=O)O)c12` [2-(Benzenesulphonylmethyl)-8-methoxynaphthalene-1-carboxylic acid], the negative logarithm of the IC50 (pIC50) was under 5.70.

On to `COc1c(-c2ccsc2)ccc(CS(=O)(=O)c2ccccc2)c1C(=O)O` [6-(Benzenesulphonylmethyl)-2-methyoxy-3-(thien-3-yl)benzoic acid], for which the negative logarithm of the IC50 (pIC50) was under 5.70.

As for `CCN(CC)CCNc1ccccc1S(=O)(=O)Cc1ccc(-c2ccoc2)c(OC)c1C(=O)O` [6-[2-(2-Diethylaminoethylamino)benzenesulphonylmethyl]-3-(furan-3-yl)-2-methoxybenzoic acid], the negative logarithm of the IC50 (pIC50) was 5.70 to 6.70.

With `COc1c(-c2ccoc2)ccc(CS(=O)(=O)N2C3CCCC2CC3)c1C(=O)O` [6-(8-Azabicyclo[3.2.1]octane-8-ylsulphonylmethyl)-3-(furan-3-yl)-2-methoxybenzoic acid], the pIC50 is under 5.70.

Turning to `COc1c(-c2ccccc2)ccc(CS(=O)(=O)c2ccccc2)c1C(=O)O` [6-(Benzenesulphonylmethyl)-2-methoxy-3-phenylbenzoic acid], the negative logarithm of the IC50 (pIC50) is under 5.70.

Turning to `CCc1ccc(CS(=O)(=O)c2ccccc2)c(C(=O)O)c1-c1ccn(C)n1` [6-Benzenesulphonylmethyl-3-ethyl-2-(1-methyl-1H-pyrazol-3-yl)-benzoic acid], the negative logarithm of the IC50 (pIC50) is under 5.70.

Take `COc1c(-c2ccoc2)ccc(CS(=O)(=O)N2CCC(F)(F)CC2)c1C(=O)O` [6-(4,4-Difluoropiperidine-1-ylsulphonylmethyl)-3-(furan-3-yl)-2-methoxybenzoic acid]: the pIC50 is over 6.70.

As to `COc1c(-c2ccoc2)ccc(CS(=O)(=O)c2ccccc2C)c1C(=O)O` [3-(Furan-3-yl)-2-methoxy-6-(2-methyl-benzenesulphonylmethyl)benzoic acid], the negative logarithm of the IC50 (pIC50) was 5.70 to 6.70.

Consider `COc1ccccc1S(=O)(=O)Cc1ccc(-c2ccoc2)c(OCCN)c1C(=O)O` [2-(2-Aminoethoxy)-3-(furan-3-yl)-6-(2-methoxybenzenesulphonyl-methyl)benzoic acid hydrochloride], for which the negative-log IC50 (pIC50) is 5.70 to 6.70.

In the case of `COc1c(-c2ccoc2)ccc(CS(=O)(=O)c2ccccc2F)c1C(=O)O` [6-(2-Fluorobenzenesulphonylmethyl)-3-(furan-3-yl)-2-methoxybenzoic acid], the pIC50 is 5.70 to 6.70.

Take `CNc1c(-c2ccoc2)ccc(CS(=O)(=O)c2ccccc2)c1C(=O)O` [6-(Benzenesulphonylmethyl)-3-(furan-3-yl)-2-methylamino benzoic acid]: the pIC50 was over 6.70.

Turning to `COc1c(-n2ccnc2)ccc(CS(=O)(=O)c2ccccc2)c1C(=O)O` [6-(Benzenesulphonylmethyl)-3-(imidazol-1-yl)-2-methoxybenzoic acid], the pIC50 was under 5.70.

Take `NC(=O)COc1c(-c2ccoc2)ccc(CS(=O)(=O)c2ccccc2)c1C(=O)O` [6-(Benzenesulphonylmethyl)-2-(carbamoylmethoxy)-3-(furan-3-yl)-benzoic acid]: the negative-log IC50 (pIC50) was 5.70 to 6.70.

With `CCN(CC)C/C=C\c1cc(F)ccc1S(=O)(=O)Cc1ccc(-c2ccoc2)c(OCC#N)c1C(=O)O` [(Z)-2-Cyanomethoxy-6-((2-(3-(Diethylamino)prop-1-enyl)-4-fluorobenzenesulfonyl)methyl)-3-(furan-3-yl)benzoic acid], the negative-log IC50 (pIC50) was over 6.70.

As to `COc1c(-c2ccoc2)ccc(CS(=O)(=O)c2cccc(O)c2)c1C(=O)O` [3-(Furan-3-yl)-6-(3-hydroxybenzenesulphonylmethyl)-2-methoxy-benzoic acid], the pIC50 is 5.70 to 6.70.

With `O=C(O)c1cc(-c2cnco2)ccc1CS(=O)(=O)c1ccccc1` [2-(Benzenesulphonylmethyl)-5-(oxazol-5-yl)benzoic acid], the negative-log IC50 (pIC50) is under 5.70.

In the case of `NCCNc1c(-c2ccoc2)ccc(CS(=O)(=O)c2ccccc2)c1C(=O)O` [2-(2-Aminoethylamino)-6-benzenesulphonylmethyl-3-(furan-3-yl)-benzoic acid hydrochloride], the negative logarithm of the IC50 (pIC50) was under 5.70.

Consider `CCc1ccc(CS(=O)(=O)c2ccc(F)cc2)c(C(=O)O)c1OC` [3-Ethyl-6-(4-fluorobenzenesulphonylmethyl)-2-methoxybenzoic acid], for which the negative logarithm of the IC50 (pIC50) is 5.70 to 6.70.

For the molecule `CCc1ccc(CS(=O)(=O)c2ccccc2)c(C(=O)O)c1-c1ccnn1C` [6-(Benzenesulphonylmethyl)-3-ethyl-2-(2-methyl-2H-pyrazol-3-yl)-benzoic acid], the negative-log IC50 (pIC50) is under 5.70.

Regarding `CCN(CC)C/C=C\c1cc(F)ccc1S(=O)(=O)Cc1ccc(-c2ccoc2)c(OC)c1C(=O)O` [(Z)-6-((2-(3-(Diethylamino)prop-1-enyl)-4-fluorophenylsulfonyl)methyl)-3-(furan-3-yl)-2-methoxybenzoic acid], the negative logarithm of the IC50 (pIC50) was over 6.70.

For `COc1c(-n2cccn2)ccc(CS(=O)(=O)c2ccccc2)c1C(=O)O` [6-(Benzenesulphonylmethyl)-2-methoxy-3-(pyrazol-1-yl)benzoic acid], the pIC50 was under 5.70.

Take `CCc1ccc(C(C)S(=O)(=O)c2ccccc2)c(C(=O)O)c1OC` (centres unmarked) [6-(1-Benzenesulphonylethyl)-3-ethyl-2-methoxy-benzoic acid]: the pIC50 was 5.70 to 6.70.

For the molecule `COc1cccc(CS(=O)(=O)c2ccccc2)c1C(=O)O` [2-(Benzenesulphonylmethyl)-6-methoxybenzoic acid], the negative-log IC50 (pIC50) is under 5.70.

Regarding `COc1c(-c2ccoc2)ccc(CS(=O)(=O)C2C3CCC2CC3)c1C(=O)O` (centres unmarked) [6-(Bicyclo[2.2.1]heptane-7-ylsulphonylmethyl)-3-(furan-3-yl)-2-methoxybenzoic acid], the pIC50 was 5.70 to 6.70.

For the molecule `CCc1ccc(CS(=O)(=O)c2ccccc2)c(C(=O)O)c1OCCN` [2-(2-Aminoethoxy)-3-ethyl-6-benzenesulphonylmethylbenzoic acid hydrochloride], the negative-log IC50 (pIC50) is over 6.70.

Consider `COc1c(-c2ccoc2)ccc(CS(=N)(=O)c2ccccc2)c1C(=O)O` (centres unmarked) [3-(Furan-3-yl)-2-methoxy-6-[(S-phenylsulphonimidoyl)methyl]benzoic acid], for which the negative logarithm of the IC50 (pIC50) was 5.70 to 6.70.

For `CNCCOc1c(-c2ccoc2)ccc(CS(=O)(=O)c2ccccc2)c1C(=O)O` [6-(Benzenesulphonylmethyl)-3-(furan-3-yl)-2-[2-(methylamino)-ethoxy]benzoic acid hydrochloride], the negative logarithm of the IC50 (pIC50) was under 5.70.

Regarding `COc1c(-c2ccoc2)ccc(CS(=O)(=O)N2CCC(O)C2)c1C(=O)O` (centres unmarked) [3-(Furan-3-yl)-6-(3-hydroxypyrrolidine-1-ylsulphonylmethyl)-2-methoxybenzoic acid], the pIC50 is 5.70 to 6.70.

Take `COc1c(-c2ccoc2)ccc(CS(=O)(=O)c2cccnc2)c1C(=O)O` [3-(Furan-3-yl)-2-methoxy-6-(pyridin-3-ylsulphonylmethyl)benzoic acid]: the negative-log IC50 (pIC50) is 5.70 to 6.70.

The term pIC50 denotes −log10 of the IC50, conventionally taken in molar units.
